The test system of assay [1] is HCT 116. In words: MTT cytotoxicity assay on HCT 116. The settings on record: 24 h, read-out: Inhibition of cell proliferation, IC50, HCT 116. Format: cell-based, Human. Here is the method: (§1) The monolayer cell culture was trypsinized and the cell count was adjusted to 5.0 × 10^5 cells/ml using respective media containing 10% FBS. To each well of the 96-well microtiter plate, 100 µL of the diluted cell suspension (50,000cells/well) was added. After 24 h, when a partial monolayer was formed, the supernatant was flicked off, the monolayer was then washed once again with the medium and 100 µL of different test concentrations of test drugs were added on to the partial monolayer in microtiter plates. The plates were then incubated at 37 °C for 24 h in 5% CO2 atmosphere. After incubation, the test solutions in the wells were discarded and 100 µL of MTT (5 mg/10 ml of MTT in PBS) was added to each well. The plates were then incubated for 4 h at 37 °C in 5% CO2 atmosphere. The supernatant was then removed and 100 µL of DMSO was added and the plates were gently shaken to solubilize the formed formazan. The absorbance was measured using a microtiter plate reader at a wavelength of 590 nm. The percentage growth inhibition was thus calculated using the following formula and the concentration of the test drug required to inhibit the cell growth by 50% (IC50) values is generated from the dose–response curves for each one of the cell lines (Meerloo et al. [2011]).
(§2) The test compounds were screened for their in vitro cytotoxicity by MTT assay against two cancer cell lines, namely MCF-7, HCT-116 and normal epithelial kidney cells (Vero). Doxorubicin was used as a reference standard.
On the technique in general: Tetrazolium dyes change colour on reduction, which living cells bring about.

For assay [2], the system named is MCF-7. In words: MTT cytotoxicity assay on MCF-7. Format: cell-based. The settings on record: 24 h, read-out: Inhibition of cell proliferation, IC50, MCF-7. Here is the method:
as §1, §2

Assay [3] in a line: ABTS.+ radical scavenging assay. The protocol: The assay was performed in a 96-well plate by serial dilution method. A 2 mM ABTS^.+ working solution was prepared in a phosphate buffer (Zheleva-Dimitrova et al [2010]).To this, 200 μL of aqueous potassium per sulfate (70 mM) solution was added and the solution was incubated for 24 h in the dark at room temperature to develop a blue-green color. To 30 μL of ABTS^.+ working solution, 50 μL of different concentrations (3.9–1000 μM) of the test sample solution and 170 μL of phosphate buffer (pH-7.4) were added in a well. The plate was then incubated in the dark at room temperature for 10 min. Then absorbance was measured at 690 nm using Elisa reader. Quercetin and ascorbic acid were used as standards. The percentage scavenging of ABTS^.+ was calculated using the formula, (Control Absorbance–Test Absorbance)*100/(Control Absorbance) and the anti-oxidant activity was expressed in terms of IC50 value.

The subject of assay [4] is normal epithelial kidney cells (Vero). As to the kind of experiment: MTT cytotoxicity assay on Vero. Format: cell-based. The settings on record: 24 h, read-out: Inhibition of cell proliferation, IC50, Vero. The protocol:
as §1, §2

The nature of assay [5]: DPPH. free radical scavenging assay. Here is the method:
DPPH. assay was performed using 96-well plate by serial dilution method. The dilution of methanolic stock solution of the test compounds and standard anti-oxidants was carried out to obtain concentration in the range of 3.9–1000 µM. Quercetin and ascorbic acid were used as standards. To a 100 μL of this solution, 100 μL of 200 µM DPPH^. in methanolic solution was added. The experiment was done in triplicate and the plate was then incubated for 30 min in the dark and later the absorbance was measured at 517 nm using Elisa reader. The percentage DPPH^. Scavenging was calculated using the formula, (Control Absorbance–Test Absorbance)*100/(Control Absorbance). The anti-oxidant activity of the test compounds was expressed in terms of concentration required for 50 percentage inhibition (IC50) (Collins [2005]).

Assay [6] concerns the target CDK2/Cyclin A (Homo sapiens, UniProt P24941). In words: CDK2/cyclin A inhibitory assay, Z'-LYTE FRET kinase assay. Format: biochemical. As to conditions: concentration of 100 micro molar; 1000 ng/ml kinase, 1000 µM ATP. From the text:
Z’-LYTE® technology involves homogeneous assay design based on FRET and is a universal platform for both screening as well as profiling protein kinases. The assay uses a peptide substrate labeled with two different fluorophores, coumarin donor and fluorescein acceptor on each end. These two fluorophores make up a FRET pair, which allows the transfer of energy when both are present on the same molecule. The initial kinase reaction transfers the ϒ-phosphate of ATP to a tyrosine or serine/threonine residue on the substrate. In a secondary reaction, referred to as the development reaction, a site-specific protease recognizes and cleaves only non-phosphorylated peptide, while phosphorylated substrate remains uncleaved. […] Upon excitation of Coumarin at 400 nm, the FRET signal is measured as a ratio between the Coumarin donor emission at 445–460 nm and the fluorescein acceptor emission at 520–535 nm(Lebakken et al. [2007]).
Initial ten-fold and two-fold dilutions of Kinase and ATP concentrations were used to choose the optimal Kinase and ATP concentration based on the % Phosphorylation.
The assay was carried out according to the kit instructions (384 well format). Briefly, 5X kinase buffer [250 mM HEPES (pH 7.5), 50 mM MgCl2, 5 mM EGTA, 0.05% BRIJ-35] was diluted to 1X using distilled water. The phosphor peptide positive control (Z’-LYTE® Tyr 4 phospho-peptide) and the non-phosphorylated negative control (Z’-LYTE® Tyr 4 peptide) were then diluted to 1:500 with 1× kinase buffer to 2 μM. […] Working development solution was then made by diluting 12 μL of the provided stock solution with 388 μL of the provided development buffer. Aliquots (20 μL) of each peptide mixture were then added to the wells of a Corning 3914 solid white microplate in replicates of 8. The development reaction was initiated by the addition of 10 μL of working development-solution to all the wells. Further, the plates were allowed to incubate at room temperature for 60 min. Reactions were then stopped by the addition of 10 μL of stop solution (Jia et al. [2008]).
Reactions were quantitated using a Tecan Robotic Microplate Reader. Reader control, blank subtraction, ratio metric calculations and finally graph plotting were carried out using Gen5™ Data Analysis Software.
The CDK2/Cyclin A assay was carried out as per the manufacturer’s instruction using suitable controls and standard.
The inhibitory assay was carried out using the stock of 10 mM in DMSO. Samples were further serially diluted to obtain concentrations of 100 μM. The concentrations were chosen based on the IC50 values obtained in the MTT assay. A total of 23 analogues were selected for the assay based on their antiproliferative activity. Further, selected compounds were screened and tested against the target CDK2/Cyclin A, and their % phosphorylation and % inhibition were recorded.

SMILES strings stand for the structures.

`COc1ccc(/C=C2\Oc3c(c(OC)cc(OC)c3C3=CCN(C)CC3)C2=O)cc1` [NMA5]: the IC50 in assay [1] is 139 µM; in assay [2] it was 155 µM; in assay [3] it was 87 ± 0.18 µM; in assay [4] it was above 200 µM; in assay [5], 98.2 ± 1.99 µM. Besides, in assay [6], the “% inhibition on CDK2/cyclin A” value was 25.098%.

Turning to `O=c1c(O)c(-c2ccc(O)c(O)c2)oc2cc(O)cc(O)c12` [Quercetin, reference compound], the IC50 in assay [3] amounted to 39 ± 0.58 µM; in assay [5], 31.42 ± 0.09 µM.

Turning to `CCN1CC=C(c2c(OC)cc(OC)c3c2O/C(=C\c2ccc(Cl)cc2)C3=O)CC1` [NEA6], the IC50 came to 124 µM in assay [1]; 95.4 µM in assay [2]; 198.18 ± 0.08 µM in assay [3]; 192 µM in assay [4]; 223 ± 4.87 µM in assay [5]. Moreover, the “% inhibition on CDK2/cyclin A” value in assay [6] came to 25.879%.

For `CCN1CC=C(c2c(OC)cc(OC)c3c2O/C(=C\c2ccc4ccccc4c2)C3=O)CC1` [NEA1], the IC50 in assay [1] was determined as 68.6 µM; in assay [2], 57.9 µM; in assay [3] it was 120.9 ± 1.08 µM; in assay [5], 141 ± 13.9 µM. Also, the “% inhibition on CDK2/cyclin A” value in assay [6] came to 32.676%.

Consider `COc1cc(OC)c(C2=CCN(C)CC2)c2c1C(=O)/C(=C/c1ccccc1)O2` [NMA1], for which the IC50 came out at 86.9 µM in assay [1]; 67.8 µM in assay [2]; 131 ± 1.74 µM in assay [3]; 187 µM in assay [4]; 151 ± 3.54 µM in assay [5]. Also, the “% inhibition on CDK2/cyclin A” value in assay [6] amounted to 27.654%.

As to `COc1cc(OC)c(C2=CCN(C(C)C)CC2)c2c1C(=O)/C(=C/c1ccc3ccccc3c1)O2` [NISOA1], the IC50 in assay [1] worked out at 63.2 µM; in assay [2] it was 46.8 µM; in assay [3], 112 ± 5.45 µM; in assay [4] it was 172 µM; in assay [5], 128 ± 17.9 µM. Further, the “% inhibition on CDK2/cyclin A” value in assay [6] worked out at 38.987%.

Regarding `CCCN1CC=C(c2c(OC)cc(OC)c3c2O/C(=C\c2ccc4ccccc4c2)C3=O)CC1` [NPA1], the IC50 in assay [1] is 94.3 µM; in assay [2], 75 µM; in assay [3] it was 101 ± 2.81 µM; in assay [4], 166 µM; in assay [5], 133 ± 19.1 µM. Also, in assay [6], the “% inhibition on CDK2/cyclin A” value is 16.089%.

As for `CCCN1CC=C(c2c(OC)cc(OC)c3c2O/C(=C\c2ccc(N(C)C)cc2)C3=O)CC1` [NPA2], the IC50 in assay [1] came out at 87.3 µM; in assay [2] it was 46.9 µM; in assay [3], 99.3 ± 1.14 µM; in assay [4], 172 µM; in assay [5], 119 ± 12.9 µM. Moreover, the “% inhibition on CDK2/cyclin A” value in assay [6] turned out to be 13.664%.

For the molecule `CCN1CC=C(c2c(OC)cc(OC)c3c2O/C(=C\c2ccc(Br)cc2)C3=O)CC1` [NEA4], the IC50 was 93.6 µM in assay [1]; 82.7 µM in assay [2]; 71.67 ± 0.34 µM in assay [3]; 188 µM in assay [4]; 94.7 ± 4.9 µM in assay [5]. In addition, the “% inhibition on CDK2/cyclin A” value in assay [6] stood at 27.236%.

For `O=C1O[C@H]([C@@H](O)CO)C(O)=C1O` [Ascorbic acid, reference compound], the IC50 in assay [3] came to 24.1 ± 1.23 µM; in assay [5], 18.5 ± 1.38 µM.

Take `COc1cc(OC)c(C2=CCN(C(C)C)CC2)c2c1C(=O)/C(=C/c1ccc(Cl)cc1)O2` [NISOA6]: the IC50 in assay [1] was 41.8 µM; in assay [2], 43.9 µM; in assay [3], 146 ± 14.8 µM; in assay [4], 179 µM; in assay [5] it was 183 ± 11.9 µM. For the same molecule, the “% inhibition on CDK2/cyclin A” value in assay [6] amounted to 36.546%.

For the molecule `CCCN1CC=C(c2c(OC)cc(OC)c3c2O/C(=C\c2ccc(OC)c(OC)c2)C3=O)CC1` [NPA5], the IC50 was 74.3 µM in assay [1]; 68.5 µM in assay [2]; 76.1 ± 1.75 µM in assay [3]; 99.9 µM in assay [4]; 89.7 ± 9.65 µM in assay [5]. In assay [6], the “% inhibition on CDK2/cyclin A” value worked out at 12.547%.

On to `CCN1CC=C(c2c(OC)cc(OC)c3c2O/C(=C\c2ccccc2Br)C3=O)CC1` [NEA3], for which the IC50 in assay [1] was 33 µM; in assay [2], 28.1 µM; in assay [3], 67.1 ± 3.2 µM; in assay [5], 85.5 ± 6.87 µM. Further, the “% inhibition on CDK2/cyclin A” value in assay [6] came to 35.559%.

Regarding `CCCN1CC=C(c2c(OC)cc(OC)c3c2O/C(=C\c2ccccc2Br)C3=O)CC1` [NPA3], the IC50 in assay [1] was 67.9 µM; in assay [2], 53.9 µM; in assay [3], 123 ± 4.55 µM; in assay [5], 159 ± 13.9 µM. Moreover, the “% inhibition on CDK2/cyclin A” value in assay [6] turned out to be 17.045%.

In the case of `COc1ccc(/C=C2\Oc3c(c(OC)cc(OC)c3C3=CCN(C(C)C)CC3)C2=O)cc1` [NISOA5], the IC50 is 55.4 µM in assay [1]; 39.6 µM in assay [2]; 109 ± 9.23 µM in assay [3]; 167 µM in assay [4]; 129 ± 6.78 µM in assay [5]. The “% inhibition on CDK2/cyclin A” value in assay [6] turned out to be 39.054%.

Turning to `COc1cc(OC)c(C2=CCN(C)CC2)c2c1C(=O)/C(=C/c1ccc(N(C)C)cc1)O2` [NMA4], the IC50 in assay [1] was 89.5 µM; in assay [2], 63.8 µM; in assay [3], 137 ± 6.23 µM; in assay [4], above 200 µM; in assay [5] it was 154 ± 12.7 µM. For the same molecule, the “% inhibition on CDK2/cyclin A” value in assay [6] stood at 29.543%.

As for `COc1cc(OC)c(C2=CCN(C)CC2)c2c1C(=O)/C(=C/c1ccccc1C)O2` [NMA3], the IC50 in assay [1] stood at 89 µM; in assay [2], 62.7 µM; in assay [3], 89.8 ± 1.48 µM; in assay [4] it was 188 µM; in assay [5], 103 ± 7.78 µM. The “% inhibition on CDK2/cyclin A” value in assay [6] was found to be 24.987%.

On to `COc1ccc(/C=C2\Oc3c(c(OC)cc(OC)c3C3=CCN(C)CC3)C2=O)cc1OC` [NMA6], for which the IC50 in assay [1] was 123 µM; in assay [2], 98.5 µM; in assay [3], 200 ± 4.43 µM; in assay [4], above 200 µM; in assay [5] it was 258 ± 8.83 µM. For the same molecule, in assay [6], the “% inhibition on CDK2/cyclin A” value is given as 26.113%.

On to `CCN1CC=C(c2c(OC)cc(OC)c3c2O/C(=C\c2ccccc2OC)C3=O)CC1` [NEA2], for which the IC50 in assay [1] is 56.7 µM; in assay [2] it was 49.1 µM; in assay [3] it was 179 ± 6 µM; in assay [5], 220 ± 2.77 µM. In addition, the “% inhibition on CDK2/cyclin A” value in assay [6] was 28.008%.
